The test system of one test is DR-GFP U2OS cells. As to the kind of experiment: HR assay (GFP fluorescence after I-SceI transfection, flow cytometry). The test is classed as cell-based. Conditions: Homo sapiens, inhibitor at 25 μM, 72 hours after transfection. On the procedure:
DR-GFP U2OS cells (Methods in Molecular Biology 2012, 920, 379.) were transfected with 2.5 μg of I-SceI-expressing pCAGGS vector and treated with the inhibitors at 25 μM concentration. 72 hours after the transfection, the cells were trypsinized and resuspended in 3% BSA in PBS. GFP fluorescence detection was carried out using a BD FACSVerse flow cytometer and data analyzed with FlowJo software.
In general terms: A flow cytometer gives signals particle by particle.

The target in a further test is T1, MRE11 (Homo sapiens, UniProt P49959).
T1 sequence (P49959 1-708): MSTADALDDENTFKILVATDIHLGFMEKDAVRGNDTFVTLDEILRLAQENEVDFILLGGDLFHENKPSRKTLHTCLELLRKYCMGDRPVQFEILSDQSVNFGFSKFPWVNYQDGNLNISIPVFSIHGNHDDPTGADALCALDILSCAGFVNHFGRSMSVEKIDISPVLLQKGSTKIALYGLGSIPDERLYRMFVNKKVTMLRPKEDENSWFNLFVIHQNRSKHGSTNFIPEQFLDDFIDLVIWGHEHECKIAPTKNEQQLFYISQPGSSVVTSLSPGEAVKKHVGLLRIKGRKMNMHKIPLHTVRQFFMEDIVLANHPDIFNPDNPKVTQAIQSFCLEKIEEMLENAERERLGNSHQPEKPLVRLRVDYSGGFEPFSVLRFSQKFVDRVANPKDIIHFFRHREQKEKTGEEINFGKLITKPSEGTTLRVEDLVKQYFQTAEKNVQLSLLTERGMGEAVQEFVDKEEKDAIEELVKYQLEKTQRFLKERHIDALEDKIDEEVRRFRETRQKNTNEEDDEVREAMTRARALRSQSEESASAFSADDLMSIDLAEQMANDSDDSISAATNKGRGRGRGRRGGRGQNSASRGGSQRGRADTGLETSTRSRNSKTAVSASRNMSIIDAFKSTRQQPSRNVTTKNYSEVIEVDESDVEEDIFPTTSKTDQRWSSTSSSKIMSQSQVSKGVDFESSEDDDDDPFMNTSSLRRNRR
As to the kind of experiment: HTS nuclease assay (cleavage of CY5/BBQ-quenched 5' overhang DNA substrate). The test is classed as biochemical. The conditions noted are these: in vitro HTS nuclease assay; 18 nM MRE11, 40 nM DNA substrate; analysis at t=4 h.

Test [1] relates to Phosphorylated RPA32 S4/S8 in U2OS cells. As to the kind of experiment: RPA assay (RPA phosphorylation after camptothecin). Conditions: Homo sapiens, U2OS cells pre-treated 1 h, then 1 uM camptothecin 1 h. The class given is cell-based. The protocol:
U2OS cells were pre-treated for 1 h with MRE11 inhibitors followed by addition of 1 uM camptothecin for 1 h. Cells were lysed in SDS-PAGE loading buffer, sonicated and boiled at 70° C. for 10 min. Equal amounts of protein (50-100 μg) were analysed by Tris-glycine gel electrophoresis Expression levels were quantified using Multi Gauge software and expressed relative to loading control. Phosphorylated RPA32 S4/S8 (A300-245A, Bethyl Laboratories) 1:1000 dilution was used.

Structures are written as SMILES. Some results are limits rather than exact numbers.

Regarding `N#C/C(=C\c1ccc2c(c1)OCC(=O)N2)C(=O)Nc1nc(-c2ccccc2)cs1` [Preparative Example 220, (E)-2-cyano-3-(3-oxo-3,4-dihydro-2H-benzo[b][1,4]oxazin-7-yl)-N-(4-phenylthiazol-2-yl)acrylamide], the inhibition (commonly the relative decrease from the control value, in per cent) at 25 µM in the test on DR-GFP U2OS cells was 50 to 75%. The concentration for half-maximal inhibition (IC50) (in general, the concentration at which inhibition is half-maximal) against MRE11 fell in the range of 10 to 90 µM.
For `CC(C)(O)c1csc(NC(=O)/C(C#N)=C/c2ccc(O)c(O)c2)n1` [Preparative Example 167, (E)-2-cyano-3-(3,4-dihydroxyphenyl)-N-(4-(2-hydroxypropan-2-yl)thiazol-2-yl)acrylamide], in that order: below 50% and 2 to 10 µM.
In the test with DR-GFP U2OS cells, `N#C/C(=C\c1cc(Cl)c(O)c(Cl)c1)C(=O)Nc1nc(-c2ccccn2)cs1` [Preparative Example 243, (E)-2-cyano-3-(3,5-dichloro-4-hydroxyphenyl)-N-(4-(pyridin-2-yl)thiazol-2-yl)acrylamide] gave an inhibition at 25 µM of 50 to 75%. Besides, the inhibition at 10 µM in test [1] (inhibitor at 10 μM) turned out to be 100%. The compound also came in with an IC50 at MRE11 below 2 µM.
On to `N#C/C(=C\c1ccc(O)c(O)c1)C(=O)Nc1nc(-c2ccc(F)cc2)cs1` [Preparative Example 187, (E)-2-cyano-3-(3,4-dihydroxyphenyl)-N-(4-(4-fluorophenyl)thiazol-2-yl)acrylamide], for which the inhibition at 25 µM with DR-GFP U2OS cells was above 75%. Also, on MRE11, the IC50 is below 2 µM.
For `N#C/C(=C\c1ccc(O)cc1F)C(=O)Nc1nc(-c2ccccc2)cs1` [Preparative Example 226, (E)-2-cyano-3-(2-fluoro-4-hydroxyphenyl)-N-(4-phenylthiazol-2-yl)acrylamide], in that order: above 75% and 10 to 90 µM.
Compound `N#C/C(=C\c1ccc(O)c(O)c1)C(=O)Nc1nc(-c2ccc3ccccc3c2)cs1` [Preparative Example 163, (E)-2-cyano-3-(3,4-dihydroxyphenyl)-N-(4-(naphthalen-2-yl)thiazol-2-yl)acrylamide] had an inhibition at 25 µM with DR-GFP U2OS cells above 75%. Moreover, on MRE11, the IC50 is below 2 µM.
Regarding `N#C/C(=C\c1ccc2[nH]c(=O)[nH]c2c1)C(=O)Nc1nc(-c2ccccc2)cs1` [Preparative Example 216, (E)-2-cyano-3-(2-oxo-2,3-dihydro-1H-benzo[d]imidazol-5-yl)-N-(4-phenylthiazol-2-yl)acrylamide], the inhibition at 25 µM in the test with DR-GFP U2OS cells was below 50%. The compound further showed an IC50 at MRE11 of 10 to 90 µM.
For `COc1ccc(-c2csc(NC(=O)/C(C#N)=C/c3ccc(O)c(O)c3)n2)cc1` [Preparative Example 162, (E)-2-cyano-3-(3,4-dihydroxyphenyl)-N-(4-(4-methoxyphenyl)thiazol-2-yl)acrylamide], in that order: above 75% and below 2 µM.
For `N#C/C(=C\c1cc(F)c(O)c(F)c1)C(=O)Nc1nc(-c2ccccc2)cs1` [Preparative Example 212, (E)-2-cyano-3-(3,5-difluoro-4-hydroxyphenyl)-N-(4-phenylthiazol-2-yl)acrylamide], in that order: below 50% and 10 to 90 µM.
In the test with DR-GFP U2OS cells, `COc1cc(/C=C(\C#N)C(=O)Nc2nc(-c3ccccc3)cs2)cc(F)c1O` [Preparative Example 203, (E)-2-cyano-3-(3-fluoro-4-hydroxy-5-methoxyphenyl)-N-(4-phenylthiazol-2-yl)acrylamide] showed an inhibition at 25 µM below 50%. In addition, the half-inhibitory concentration (IC50) against MRE11 lay within 2 to 10 µM.
`N#C/C(=C\c1ccc(O)c(O)c1)C(=O)Nc1nc(-c2ccccc2)c(-c2ccccc2)s1` [Preparative Example 176, (E)-2-cyano-3-(3,4-dihydroxyphenyl)-N-(4,5-diphenylthiazol-2-yl)acrylamide]: the inhibition at 25 µM in the test with DR-GFP U2OS cells was above 75%. This compound also yielded an IC50 on MRE11 below 2 µM.
In the same order, the values of `N#C/C(=C\c1cccc(C(=O)O)c1)C(=O)Nc1nc(-c2ccccc2)cs1` [Preparative Example 210, (E)-3-(2-cyano-3-oxo-3-((4-phenylthiazol-2-yl)amino)prop-1-en-1-yl)benzoic acid] are below 50% and 10 to 90 µM.
On to `COc1ccc(-c2csc(NC(=O)/C(C#N)=C/c3ccc(O)c(O)c3)n2)cn1` [Preparative Example 241, (E)-2-cyano-3-(3,4-dihydroxyphenyl)-N-(4-(6-methoxypyridin-3-yl)thiazol-2-yl)acrylamide], for which the results for the inhibition at 25 µM (with DR-GFP U2OS cells; in test [1] (inhibitor at 25 μM)) were below 50% and 75%, respectively. Further, the IC50 against MRE11 was below 2 µM.
With `Cc1ccc(-c2csc(NC(=O)/C(C#N)=C/c3ccc(O)c(O)c3)n2)cn1` [Preparative Example 232, (E)-2-cyano-3-(3,4-dihydroxyphenyl)-N-(4-(6-methylpyridin-3-yl)thiazol-2-yl)acrylamide], in the test with DR-GFP U2OS cells, the inhibition at 25 µM is below 50%. For the same compound, the IC50 against MRE11 is below 2 µM.
As for `N#C/C(=C\c1ccc(F)c(F)c1)C(=O)Nc1nc(-c2ccccc2)cs1` [Preparative Example 213, (E)-2-cyano-3-(3,4-difluorophenyl)-N-(4-phenylthiazol-2-yl)acrylamide], in the test on DR-GFP U2OS cells, the inhibition at 25 µM is below 50%. The compound also showed an IC50 against MRE11 of 10 to 90 µM.
In the same order, the values of `N#C/C(=C\c1ccc(O)c(O)c1)C(=O)Nc1nc(-c2cccnn2)cs1` [Preparative Example 186] are below 50% and below 2 µM.
As to `N#C/C(=C\c1ccc(O)c(O)c1)C(=O)Nc1nc(-c2ccc(OC(F)(F)F)cc2)c(C2CCCCC2)s1` [Preparative Example 175, (E)-2-cyano-N-(5-cyclohexyl-4-(4-(trifluoromethoxy)phenyl)thiazol-2-yl)-3-(3,4-dihydroxyphenyl)acrylamide], the inhibition at 25 µM with DR-GFP U2OS cells was above 75%. For the same compound, the IC50 against MRE11 lay in the range of 2 to 10 µM.
In the same order, the values of `N#C/C(=C\c1ccc(O)c(O)c1)C(=O)Nc1nc(-c2cc(F)cc(F)c2)cs1` [Preparative Example 185, (E)-2-cyano-N-(4-(3,5-difluorophenyl)thiazol-2-yl)-3-(3,4-dihydroxyphenyl)acrylamide] are 50 to 75% and below 2 µM.
For `N#C/C(=C\c1cccc(C(F)(F)F)c1)C(=O)Nc1nc(-c2ccccc2)cs1` [Preparative Example 231, (E)-2-cyano-N-(4-phenylthiazol-2-yl)-3-(3-(trifluoromethyl)phenyl)acrylamide], in that order: below 50% and 2 to 10 µM.
In the same order, the values of `N#C/C(=C\c1ccc(O)c(O)c1)C(=O)Nc1nc(-c2cccc(C#N)c2)cs1` [Preparative Example 180, (E)-2-cyano-N-(4-(3-cyanophenyl)thiazol-2-yl)-3-(3,4-dihydroxyphenyl)acrylamide] are 50 to 75% and below 2 µM.
Turning to `N#C/C(=C\c1ccc(O)c2ccccc12)C(=O)Nc1nc(-c2ccccc2)cs1` [Preparative Example 227, (E)-2-cyano-3-(4-hydroxynaphthalen-1-yl)-N-(4-phenylthiazol-2-yl)acrylamide], in the test on DR-GFP U2OS cells, the inhibition at 25 µM was above 75%. On MRE11, this compound registered an IC50 of 2 to 10 µM.
For `CC(=O)Nc1cccc(/C=C(\C#N)C(=O)Nc2nc(-c3ccccc3)cs2)c1` [Preparative Example 207, 3-(3-acetamidophenyl)-2-cyano-N-(4-phenylthiazol-2-yl)acrylamide], in that order: 50 to 75% and 2 to 10 µM.
For `N#C/C(=C\c1ccc(O)c(O)c1)C(=O)Nc1nc(-c2ccncc2)cs1` [Preparative Example 188, (E)-2-cyano-3-(3,4-dihydroxyphenyl)-N-(4-(pyridin-4-yl)thiazol-2-yl)acrylamide], in that order: 50 to 75% and below 2 µM.
As for `COc1ccc(-c2csc(NC(=O)/C(C#N)=C/c3ccc(O)c(O)c3)n2)cc1O` [Preparative Example 166, (E)-2-cyano-3-(3,4-dihydroxyphenyl)-N-(4-(3-hydroxy-4-methoxyphenyl)thiazol-2-yl)acrylamide], the inhibition at 25 µM with DR-GFP U2OS cells was above 75%. Further, at MRE11, the IC50 is below 2 µM.
In the test with DR-GFP U2OS cells, `N#C/C(=C\c1ccc(O)c(O)c1)C(=O)Nc1nc(-c2ccc(N3CCOCC3)cc2)cs1` [Preparative Example 178] showed an inhibition at 25 µM of 50 to 75%. In addition, on MRE11, the IC50 was below 2 µM.

These data come from patent publication US11584742B2 (MASARYKOVA UNIVERZITA, priority 2018, dated 2023).
